Data on 30 compounds can be found in patent US12673944B2, “Compounds having inhibitory activity against glucosylceramide synthase or pharmaceutically acceptable salt thereof, processes for preparing the same, and pharmaceutical compositions comprising the same” (YUHAN CORPORATION, priority 2019, dated 2026).

For assay [1], the system named is GM1 production in Jurkat cells. Put plainly: cells. The class given is cell-based. To be noted: Homo sapiens, Jurkat, 72 h.
Assay [2] concerns the target T1, glucosylceramide synthase (GCS) (Homo sapiens, UniProt Q16739).
T1 construct: The obtained supernatant was used; host or cells: A549 cells (lysate supernatant after sonication)
T1 sequence (Q16739 1-394): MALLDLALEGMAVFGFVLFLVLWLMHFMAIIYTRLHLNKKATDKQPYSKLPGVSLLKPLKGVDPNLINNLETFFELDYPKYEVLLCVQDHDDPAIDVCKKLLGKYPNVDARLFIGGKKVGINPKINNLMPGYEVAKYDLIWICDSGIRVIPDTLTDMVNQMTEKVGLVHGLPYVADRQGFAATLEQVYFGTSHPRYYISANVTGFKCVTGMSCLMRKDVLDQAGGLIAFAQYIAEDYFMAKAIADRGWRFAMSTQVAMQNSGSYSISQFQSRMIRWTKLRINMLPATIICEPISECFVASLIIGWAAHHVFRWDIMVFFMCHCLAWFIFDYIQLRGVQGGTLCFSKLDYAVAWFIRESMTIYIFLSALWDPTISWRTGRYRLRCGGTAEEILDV
As to the kind of experiment: GCS enzyme inhibition assay (A549 cell lysate, NBD C6-ceramide, HPLC fluorescence). The following applies: inhibitory activity against GCS, 37° C., 90 minutes. It counts as biochemical. Put shortly: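 Percent GCS activity was derived from the GlcCer share of Cer plus GlcCer areas, scaled from ibiglustat (0%) to DMSO (100%). Enzyme came from sonicated A549 lysate in 50 mM HEPES pH 7.3; 90 min incubation at 37° C, chloroform/methanol stop and extraction.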

Usually IC50 stands for the concentration at which inhibition is half-maximal. With `COc1cccc(-c2ccc3c(c2)OCC(C)(C)C3NC(=O)O[C@@H]2CN3CCC2CC3)n1` (stereo partly drawn) [Example 246, (S)-quinuclidin-3-yl (7-(6-methoxypyridin-2-yl)-3,3-dimethylchroman-4-yl)carbamate], the half-maximal inhibitory concentration (IC50) in assay [1] is 1.3 nM; in assay [2] it was 0.75 nM.

Turning to `CC1(C)COc2cc(-c3ccc(C#N)cc3)ccc2C1NC(=O)O[C@@H]1CN2CCC1CC2` (stereo partly drawn) [Example 247, (S)-quinuclidin-3-yl (7-(4-cyanophenyl)-3,3-dimethylchroman-4-yl)carbamate], the IC50 worked out at 10.7 nM in assay [1] and 0.58 nM in assay [2].

Take `Cc1ccc(-c2ccc3c(c2)OCC(C)(C)C3NC(=O)O[C@@H]2CN3CCC2CC3)c(F)n1` (stereo partly drawn) [Example 248, (S)-quinuclidin-3-yl (7-(2-fluoro-6-methylpyridin-3-yl)-3,3-dimethylchroman-4-yl)carbamate]: the figures for the concentration for half-maximal inhibition (IC50) in assay [1] and in assay [2] were 29.6 nM and 0.86 nM, respectively.

In the case of `CC1(C)COc2cc(-c3ccc4c(c3)OCO4)ccc2C1NC(=O)O[C@@H]1CN2CCC1CC2` (stereo partly drawn) [Example 249, (S)-quinuclidin-3-yl (7-(benzo[d][1,3]dioxol-5-yl)-3,3-dimethylchroman-4-yl)carbamate], the IC50 was 4 nM in assay [1] and 0.39 nM in assay [2].

Consider `CC1(C)COc2cc(-c3ccc(C4CC4)nc3)ccc2C1NC(=O)O[C@@H]1CN2CCC1CC2` (stereo partly drawn) [Example 250, (S)-quinuclidin-3-yl (7-(6-cyclopropylpyridin-3-yl)-3,3-dimethylchroman-4-yl)carbamate], for which the results for the IC50 in assay [1] and in assay [2] were 5.4 nM and 0.35 nM, respectively.

Regarding `CN(C)c1ccc(-c2ccc3c(c2)OCC(C)(C)C3NC(=O)O[C@@H]2CN3CCC2CC3)cn1` (stereo partly drawn) [Example 251, (S)-quinuclidin-3-yl (7-(6-(dimethylamino)pyridin-3-yl)-3,3-dimethylchroman-4-yl)carbamate], the IC50 was determined as 17.5 nM in assay [1] and 1.64 nM in assay [2].

With `COc1ccc(F)cc1-c1ccc2c(c1)OCC(C)(C)C2NC(=O)O[C@@H]1CN2CCC1CC2` (stereo partly drawn) [Example 252, (S)-quinuclidin-3-yl (7-(5-fluoro-2-methoxyphenyl)-3,3-dimethylchroman-4-yl)carbamate], the IC50 in assay [1] was found to be 1.4 nM; in assay [2] it was 0.54 nM.

Turning to `CCOc1ccc(-c2ccc3c(c2)OCC(C)(C)C3NC(=O)O[C@@H]2CN3CCC2CC3)cn1` (stereo partly drawn) [Example 253, (S)-quinuclidin-3-yl (7-(6-ethoxypyridin-3-yl)-3,3-dimethylchroman-4-yl)carbamate], the results for the IC50 in assay [1] and in assay [2] were 6.4 nM and 0.76 nM, respectively.

`COc1ncc(-c2ccc3c(c2)OCC(C)(C)C3NC(=O)O[C@@H]2CN3CCC2CC3)cc1C` (stereo partly drawn) [Example 254, (S)-quinuclidin-3-yl (7-(6-methoxy-5-methylpyridin-3-yl)-3,3-dimethylchroman-4-yl)carbamate]: the half-maximal inhibitory concentration (IC50) in assay [1] came to 17.4 nM; in assay [2], 1.7 nM.

Take `COc1c(C)cc(-c2ccc3c(c2)OCC(C)(C)C3NC(=O)O[C@@H]2CN3CCC2CC3)cc1C` (stereo partly drawn) [Example 255, (S)-quinuclidin-3-yl (7-(4-methoxy-3,5-dimethylphenyl)-3,3-dimethylchroman-4-yl)carbamate]: the IC50 in assay [1] came out at 5.1 nM; in assay [2], 1.2 nM.

On to `CCCCc1ccc(-c2ccc3c(c2)OCC(C)(C)C3NC(=O)O[C@@H]2CN3CCC2CC3)cc1` (stereo partly drawn) [Example 256, (S)-quinuclidin-3-yl (7-(4-butylphenyl)-3,3-dimethylchroman-4-yl)carbamate], for which the figures for the half-inhibitory concentration (IC50) in assay [1] and in assay [2] were 0.2 nM and 0.39 nM, respectively.

As for `CC(C)Cc1ccc(-c2ccc3c(c2)OCC(C)(C)C3NC(=O)O[C@@H]2CN3CCC2CC3)cc1` (stereo partly drawn) [Example 257, (S)-quinuclidin-3-yl (7-(4-isobutylphenyl)-3,3-dimethylchroman-4-yl)carbamate], the figures for the IC50 in assay [1] and in assay [2] were 0.7 nM and 0.36 nM, respectively.

`CC(C)Oc1ccc(-c2ccc3c(c2)OCC(C)(C)C3NC(=O)O[C@@H]2CN3CCC2CC3)cn1` (stereo partly drawn) [Example 258, (S)-quinuclidin-3-yl (7-(6-isopropoxypyridin-3-yl)-3,3-dimethylchroman-4-yl)carbamate]: the IC50 in assay [1] is 1 nM; in assay [2], 0.45 nM.

Consider `CC1(C)COc2cc(-c3ccc(-c4ccon4)cc3)ccc2C1NC(=O)O[C@@H]1CN2CCC1CC2` (stereo partly drawn) [Example 259, (S)-quinuclidin-3-yl (7-(4-(isoxazol-3-yl)phenyl)-3,3-dimethylchroman-4-yl)carbamate], for which the IC50 was 6.9 nM in assay [1] and 1.14 nM in assay [2].

As to `CC(C)COc1ccc(-c2ccc3c(c2)OCC(C)(C)C3NC(=O)O[C@@H]2CN3CCC2CC3)cc1` (stereo partly drawn) [Example 260, (S)-quinuclidin-3-yl (7-(4-isobutoxyphenyl)-3,3-dimethylchroman-4-yl)carbamate], the IC50 in assay [1] stood at 0.3 nM; in assay [2], 0.51 nM.

Turning to `CC(C)Oc1ccc(-c2ccc3c(c2)OCC(C)(C)C3NC(=O)O[C@@H]2CN3CCC2CC3)cc1F` (stereo partly drawn) [Example 261, (S)-quinuclidin-3-yl (7-(3-fluoro-4-isopropoxyphenyl)-3,3-dimethylchroman-4-yl)carbamate], the IC50 came out at 2.6 nM in assay [1] and 0.65 nM in assay [2].

In the case of `CC1(C)COc2cc(-c3ccc(C(F)(F)F)cc3F)ccc2C1NC(=O)O[C@@H]1CN2CCC1CC2` (stereo partly drawn) [Example 262, (S)-quinuclidin-3-yl (7-(2-fluoro-4-(trifluoromethyl)phenyl)-3,3-dimethylchroman-4-yl)carbamate], the concentration for half-maximal inhibition (IC50) in assay [1] was 3.7 nM; in assay [2], 0.52 nM.

On to `Cc1cc(-c2ccc3c(c2)OCC(C)(C)C3NC(=O)O[C@@H]2CN3CCC2CC3)cc(C)c1OC(C)C` (stereo partly drawn) [Example 263, (S)-quinuclidin-3-yl (7-(4-isopropoxy-3,5-dimethylphenyl)-3,3-dimethylchroman-4-yl)carbamate], for which the results for the IC50 in assay [1] and in assay [2] were 4 nM and 1.44 nM, respectively.

On to `CC1(C)COc2cc(-c3ccccc3)ccc2C1NC(=O)O[C@@H]1CN2CCC1CC2` (stereo partly drawn) [Example 264, (S)-quinuclidin-3-yl (3,3-dimethyl-7-phenylchroman-4-yl)carbamate], for which the figures for the IC50 in assay [1] and in assay [2] were 0.7 nM and 0.35 nM, respectively.

`CC1(C)COc2cc(-c3cccnc3)ccc2C1NC(=O)O[C@@H]1CN2CCC1CC2` (stereo partly drawn) [Example 265, (S)-quinuclidin-3-yl (3,3-dimethyl-7-(pyridin-3-yl)chroman-4-yl)carbamate]: the results for the 50% inhibitory concentration (IC50) in assay [1] and in assay [2] were 38.7 nM and 2.03 nM, respectively.

For the compound `CC1(C)COc2cc(-c3ccccn3)ccc2C1NC(=O)O[C@@H]1CN2CCC1CC2` (stereo partly drawn) [Example 266, (S)-quinuclidin-3-yl (3,3-dimethyl-7-(pyridin-2-yl)chroman-4-yl)carbamate], the IC50 in assay [1] stood at 26.9 nM; in assay [2] it was 4.07 nM.

Take `CC1(C)COc2cc(Cc3ccccc3)ccc2C1NC(=O)O[C@@H]1CN2CCC1CC2` (stereo partly drawn) [Example 267, (S)-quinuclidin-3-yl (7-benzyl-3,3-dimethylchroman-4-yl)carbamate]: the results for the IC50 in assay [1] and in assay [2] were 9.1 nM and 1.48 nM, respectively.

Take `Cc1cccc(-c2ccc3c(c2)OCC(C)(C)C3NC(=O)O[C@@H]2CN3CCC2CC3)c1` (stereo partly drawn) [Example 268, (S)-quinuclidin-3-yl (3,3-dimethyl-7-(m-tolyl)chroman-4-yl)carbamate]: the figures for the IC50 in assay [1] and in assay [2] were 1.4 nM and 0.62 nM, respectively.

`Cc1ccc(-c2ccc3c(c2)OCC(C)(C)C3NC(=O)O[C@@H]2CN3CCC2CC3)cc1` (stereo partly drawn) [Example 269, (S)-quinuclidin-3-yl (3,3-dimethyl-7-(p-tolyl)chroman-4-yl)carbamate]: the IC50 in assay [1] was 1.9 nM; in assay [2], 0.66 nM.

`Cc1ccccc1-c1ccc2c(c1)OCC(C)(C)C2NC(=O)O[C@@H]1CN2CCC1CC2` (stereo partly drawn) [Example 270, (S)-quinuclidin-3-yl (3,3-dimethyl-7-(o-tolyl)chroman-4-yl)carbamate]: the IC50 in assay [1] stood at 1 nM; in assay [2] it was 0.78 nM.

Turning to `CC1(C)COc2cc(/C=C/c3ccsc3)ccc2C1NC(=O)O[C@@H]1CN2CCC1CC2` (stereo partly drawn) [Example 271, (S)-quinuclidin-3-yl (3,3-dimethyl-7-((E)-2-(thiophen-3-yl)vinyl)chroman-4-yl)carbamate], the results for the IC50 in assay [1] and in assay [2] were 9 nM and 1.26 nM, respectively.

`C=Cc1ccc(-c2ccc3c(c2)OCC(C)(C)C3NC(=O)O[C@@H]2CN3CCC2CC3)cc1` (stereo partly drawn) [Example 272, (S)-quinuclidin-3-yl (3,3-dimethyl-7-(4-vinylphenyl)chroman-4-yl)carbamate]: the 50% inhibitory concentration (IC50) worked out at 4.4 nM in assay [1] and 0.89 nM in assay [2].

Consider `CCc1ccc(-c2ccc3c(c2)OCC(C)(C)C3NC(=O)O[C@@H]2CN3CCC2CC3)cc1` (stereo partly drawn) [Example 273, (S)-quinuclidin-3-yl (7-(4-ethylphenyl)-3,3-dimethylchroman-4-yl)carbamate], for which the IC50 in assay [1] came out at 2.9 nM; in assay [2] it was 0.46 nM.

As for `C=Cc1ccccc1-c1ccc2c(c1)OCC(C)(C)C2NC(=O)O[C@@H]1CN2CCC1CC2` (stereo partly drawn) [Example 274, (S)-quinuclidin-3-yl (3,3-dimethyl-7-(2-vinylphenyl)chroman-4-yl)carbamate], the 50% inhibitory concentration (IC50) is 1.7 nM in assay [1] and 0.58 nM in assay [2].

`CCOc1ccc(-c2ccc3c(c2)OCC(C)(C)C3NC(=O)O[C@@H]2CN3CCC2CC3)c(C)c1` (stereo partly drawn) [Example 275, (S)-quinuclidin-3-yl (7-(4-ethoxy-2-methylphenyl)-3,3-dimethylchroman-4-yl)carbamate]: the half-inhibitory concentration (IC50) in assay [1] is 2.6 nM; in assay [2], 0.84 nM.
